For assay [1], the system named is Adults with Type 2 Diabetes Mellitus. The following applies: starting HbA1c below 8; 300 mg/day; as long as 52 weeks; cited from earlier work.
For assay [2], the system named is subject with T2D. Description: Blood glucose response to postprandial exercise. Format: in vivo, human. The protocol: The patient of Example 1 was encouraged to track glucose levels, including postprandial glucose levels, to observe the effect of postprandial exercise and lifestyle changes. To control triglyceridemia they also started over the counter orlistat at a 60 mg dose daily with a daily multi-vitamin supplement and an additional vitamin D supplement. They had discontinued metformin and statins. Instead close monitoring of blood glucose levels was undertaken.
In Example 2, when using orlistat at 60 mg daily, the patient noticed that blood glucose levels reduced to a level of about 90 to 100 mg/dL, which is in the normal range, after a modest meal with a brisk walk after eating. The blood glucose levels stayed below 100 mg/dL for several hours. […] Effectively exercise is contraindicated in standard of care treatments for T2D due to the use of medications that can drive the glucose levels too low.
A subject with T2D with fasting glucose levels of over 140 mg/dL was treated with 60 mg Orlistat. The subject undertook exercise in a postprandial state within about an hour and a half after eating. […]
The subject with T2D was treated with Pioglitazone 15 mg and postprandial exercise but no Exercise Sensitizer or SGLT2 inhibitor. Over twenty minutes of postprandial exercise glucose readings were taken every 5 minutes for fifteen minutes. […]
The subject with T2D was treated with Exercise Sensitizer Colestipol (1 gm dose) and postprandial exercise. Over twenty minutes of postprandial exercise glucose readings were taken every 5 minutes for fifteen minutes. […]
The subject with T2D was treated with Exercise Sensitizer Colestipol (1 gm) before each meal and with 60 mg. of Exercise Sensitizer Orlistat and 100 mg. of Canagliflozin daily. […] Over twenty minutes of postprandial exercise on an elliptical trainer at a resistance setting of 6, glucose readings dropped to about 81 to 84 mg/dL. […]

In assay [3] the test system is subject with T2D. Description: Blood glucose response to exercise in a fasting state. The following applies: 60 mg Orlistat; over fifteen to thirty minutes. It counts as in vivo, human. The protocol:
A subject with T2D with starting fasting glucose level of about 140 mg/dL to 160 mg/dL and HbA1c of about 8 was treated with Orlistat. In one aspect, the subject with T2D was treated with 60 mg Orlistat and exercised in a fasting state. […] Although not intending to be bound by theory, one factor may be the natural inhibition of gluconeogenesis in the postprandial state. In addition, the release of fatty acids or lack thereof may affect the release of cholecystokinin and other downstream effects and thus account for the synergy between the postprandial state and the Exercise Sensitizers.

Assay [4] has as its system subject with T2D. Nature of the assay: Three month treatment with postprandial exercise: fasting glucose, HbA1c, triglycerides, BMI. It counts as in vivo, human. The following applies: postprandial exercise with orlistat; from over 500 mg/dL. The protocol:
Over three months to speed up the slow progress the subject with T2D with fasting glucose level of about 140 mg/dL and HbA1c of about 7.5 or above was treated with Orlistat at the lowest marketed dose of 60 mg and the lowest dose for either Canafliglozin (100 mg) and Dapagliflozin (5 mg). Postprandial exercise with orlistat reduced triglycerides to about 260 mg/dL from over 500 mg/dL.
An invasive glucose testing meter was used to simulate a post-prandial invasive/noninvasive glucose monitoring device. Specifically a combination of orlistat and a SGLT2 inhibitor (Canafliglozin and Dapagliflozin) was administered. Treatment with orlistat (60 mg) daily alone with […]
The fasting glucose levels changed and continued to decrease overall over the three months.
The fasting glucose levels were obtained using a portable glucose meter while the fasting glucose (again to check the meter and strip accuracy) and HbA1c were determined using laboratory tests that included a lipid panel. […] Also the subject could not be fully compliant—many meals were not followed by exercise. The treatment with Exercise Sensitizer and SGLT2 inhibitor was adhered to strictly. Still, the triglyceride levels dropped to 260 and eventually to about 220 from about 500. […]

For `Cc1ccc([C@@H]2O[C@H](CO)[C@@H](O)[C@H](O)[C@H]2O)cc1Cc1ccc(-c2ccc(F)cc2)s1` [Canagliflozin, (2S,3R,4R,5S,6R)-2-{3-[5-[4-Fluoro-phenyl)-thiophen-2-ylmethyl]-4-methyl-phenyl}-6-hydroxymethyl-tetrahydro-pyran-3,4,5-triol], the “improvement in HbA1c” value in assay [1] is recorded as “less than 0.8”.

Turning to `CCc1ccc(CCOc2ccc(CC3SC(=O)NC3=O)cc2)nc1` (stereo not drawn) [Pioglitazone], the “blood glucose level during postprandial exercise” value with subject with T2D [2] (Pioglitazone 15 mg, at about ten minutes, then leveled off, from about 175 mg/dL) is on record as “about 103 mg/dL”.

`CCCCCCCCCCC[C@@H](C[C@@H]1OC(=O)[C@H]1CCCCCC)OC(=O)[C@H](CC(C)C)NC=O` [Orlistat, (S)—((S)-1-((2S,3S)-3-Hexyl-4-oxooxetan-2-yl)tridecan-2-yl) 2-formamido-4-methylpentanoate]: the “blood/plasma glucose level on exercise in a fasting state” value in the assay on subject with T2D [3] was “increased or remained steady in the high range”. Further, the triglycerides result in the assay with subject with T2D [4] is given as “about 260 mg/dL”. In addition, the “blood/plasma glucose level after postprandial exercise” value in the assay with subject with T2D [2] (60 mg Orlistat, exercise within about an hour and a half after eating, fasting glucose over 140 mg/dL) is listed as “dropped sharply to the normal range”. Moreover, the “blood glucose level for several hours after the postprandial walk” value in the assay with subject with T2D [2] (orlistat 60 mg daily, several hours) is recorded as “below 100 mg/dL”.

Source of the values: patent publication US10743813B2, “Diabetes control using postprandial feedback” (priority 2014, dated 2020).
